# Laboratory results from patent US20260085262A1, “ACQ FLUORESCENCE PROBE COMPOSITION, CMC DETERMINATION METHOD, STAIN CLEANING CONCENTRATION DETERMINATION METHOD, DETERGENT DISPENSING CONTROL METHOD, AND DETERGENT DISPENSING CONTROL SYSTEM” (GUANGZHOU BLUEMOON INDUSTRIAL CO., LTD., priority 2024, published 2026).
# Read-outs that look alike come from different tables or passages of the source.
# Experiments:
# [1] = cited from earlier work; for Flash point / Viscosity / Volatility/Boiling point: solvent; for Solvent solubility in water: classified with reference to solvent data in Pub Chem
# [2] = Solubility classification of probe molecule in solvent; conditions: ACQ probe molecule is CUR; label = solvent
# [3] = Hansen solubility parameters (HSP), δ difference and HSP distance Ra
# [4] = cmc determination with probe solutions in NMP, fluorescence spectrophotometer; assay type: physicochemical; conditions: Supreme Clean solution (directly prepared); probe dissolved in NMP; range read from fluorescence intensity-concentration curve
# Source text: (§1) In order to determine whether these fluorescence probe molecules can form a stable probe solution, the inventors dissolved these probe molecules in N-methylpyrrolidone (NMP).
# (§2) Detergent solutions prepared in a series of concentrations, including the directly prepared Supreme Clean (i.e. Supreme Biotechnology (Clean) liquid laundry detergent) solution and Supreme Brilliant White (i.e. Supreme Biotechnology (Brilliant White) liquid laundry detergent) washing water containing a fluorescent brightener, are tested using these probe solutions formed above. Specifically, an appropriate wavelength is selected according to the determination results of a fluorescence spectrophotometer, and a fluorescence response value-concentration curve is plotted with detergent concentrations on the x-axis and fluorescence intensity on the y-axis. The change section of the curve from a plateau region to a rising region is visually obtained, corresponding to the value range of the measured value of cmc.
# [5] = as above; assay type: physicochemical; conditions: Supreme Brilliant White washing water with fluorescent brightener; probe dissolved in NMP
# Source text: as §1, §2
# [6] = cmc of detergent solution by fluorescence probe method, fluorescence spectrophotometer (Example 1); assay type: physicochemical
# [7] = cmc by fluorescence probe method, customized photoelectric detector (CD detector); assay type: physicochemical; conditions: aqueous solution of Supreme Biotechnology (Bright White) laundry detergent; label = solvent for probe
# Description: Here, the liquid to be tested is Supreme Biotechnology (Brilliant White) detergent solution (ZZLB), and the detector is a customized photoelectric detector (CD detector).
# In addition, due to the use of the CUR-NMP single organic solvent composition system, the solvent addition amount in Table 6 can be considered equivalent to the addition amount of the probe solution. The cmc value is determined using the fitted line intersection method, i.e., according to the determination results of a fluorescence spectrophotometer, an appropriate wavelength is selected within the corresponding fluorescence emission peak range, and a fluorescence response value-concentration curve is plotted with detergent concentrations on the x-axis and fluorescence intensity on the y-axis. The plateau region and the rising region of the curve are fitted by linear regression, respectively, and the intersection point of two fitted lines is obtained. The surfactant concentration on the x-axis corresponding to the intersection point is the cmc concentration (measured value).
# The fluorescence photoelectric detector used in the present invention includes any of the following: • 1) including excitation filter (430 nm), dichroic mirror, and emission filter (495 nm), light source: peak wavelength of 430 nm, waveband of 420 to 440 nm, working current: 0.02 A, working voltage: 5V, the acceptable wavelength range of detector of at least 480-510 nm; • 2) including excitation filter (550 nm), dichroic mirror, and emission filter (638 nm), light source: peak wavelength of 550 nm, waveband of 540 to 560 nm, working current: 0.02 A, working voltage: 5V, the acceptable wavelength range of detector of at least 620-650 nm.
# Referring to Examples 1 and 3, Supreme Biotechnology (Brilliant White) detergent solution was prepared. […] Determination was carried out using a CD detector in the above two cases.
# [8] = document value; cited from earlier work
# [9] = cmc by surface tension method; assay type: physicochemical; conditions: NMP without probe
# Source text: Based on the above speculation, the inventors also observed the change in the cmc value at different addition amounts of the NMP solvent (without the probe) used in the CUR-NMP probe solution using the surface tension method. When the addition amount of NMP is less than 1000, the cmc value determined is affected to some extent, but the effect is small. When the addition amount of NMP is less than 400, the cmc value determined is basically not affected, and the result is basically consistent with the result determined by fluorescence spectrometry and conforms to the inference.
# FIG. 5 is a graph showing the curves obtained by determining the cmc of the above various brands of detergent solutions using the surface tension method.
# [10] = HSP distance between solvent and curcumin (CUR)
# [11] = total δ of solvent minus total δ of curcumin (CUR)
# [12] = aqueous solution of Supreme Biotechnology (Bright White) laundry detergent, label = solvent for probe
# [13] = aqueous solution of Supreme Biotechnology (Bright White) laundry detergent, label = solvent for probe (auxiliary agent)
# [14] = HSP distance between solvent and pyrene
# [15] = HSP distance between solvent and rhodamine B
# [16] = total δ of solvent minus total δ of pyrene
# [17] = total δ of solvent minus total δ of rhodamine B
Compound,Flash point [1],Viscosity [1],Volatility/Boiling point [1],"Ra [3, 10]","δ difference [3, 11]",cmc value range [4],cmc value range [5],"cmc value, CUR, By Customized fluorescence photoelectric detector [7]",Dispersion δD [8],Hydrogen bonding δH [8],Polarity δH [8],Total δ [8],further results
"OCCCCCO [1,5-Pentanediol]",129 °C,128 mPa · s,242 °C,6.580 (MPa)^1/2,4.118 (MPa)^1/2,,,,,,,,Probe solubility in solvent [2]: Soluble (0.01-0.1% is soluble)
"Cc1cc(=O)oc2c3c4c(cc12)CCCN4CCC3 [C480, coumarin 480]",,,,,,0.05 to 0.2 g/L,0.3 to 1 g/L,,,,,,
"COc1cc(/C=C/C(=O)CC(=O)/C=C/c2ccc(O)c(OC)c2)ccc1O [CUR, curcumin]",,,,,,0.05 to 0.1 g/L,0.2 to 0.3 g/L,,,,,,
"CCOCCOCCO [Diethylene glycol monoethyl ether (DGME), Diethylene glycol monoethyl ether]",94 °C,3.85 mPa · s,202 °C,6.386 (MPa)^1/2,−0.382 (MPa)^1/2,,,0.114 g/L,16.1 (MPa)^1/2,12.2 (MPa)^1/2,9.2 (MPa)^1/2,22.197 (MPa)^1/2,"cmc value, NR, By Fluorescence spectrophotometer [6, 12]: 0.089 g/L; cmc value, CUR, By Fluorescence spectrophotometer [6, 13]: 0.086 g/L; cmc value, NR, By Customized fluorescence photoelectric detector [7]: 0.074 g/L; Ra [3, 14]: 16.995 (MPa)^1/2; Ra [3, 15]: 10.489 (MPa)^1/2; δ difference [3, 16]: −0.712 (MPa)^1/2; δ difference [3, 17]: −8.256 (MPa)^1/2"
OCCO [Ethylene glycol],,,,,,,,0.121 g/L,,,,,"cmc value, CUR, By Fluorescence spectrophotometer [6]: 0.102 g/L; cmc value, NR, By Fluorescence spectrophotometer [6]: 0.091 g/L"
"CN1CCCC1=O [N-methylpyrrolidone (NMP), N-methylpyrrolidone]",85 °C,1.65 mPa · s,204 °C,10.950 (MPa)^1/2,0.380 (MPa)^1/2,,,0.116 g/L,18 (MPa)^1/2,7.2 (MPa)^1/2,12.3 (MPa)^1/2,22.959 (MPa)^1/2,"cmc value, NR, By Fluorescence spectrophotometer [6, 12]: 0.088 g/L; cmc value, CUR, By Fluorescence spectrophotometer [6, 13]: 0.100 g/L; cmc value, NR, By Customized fluorescence photoelectric detector [7]: 0.066 g/L; Ra [3, 14]: 14.343 (MPa)^1/2; Ra [3, 15]: 12.708 (MPa)^1/2; δ difference [3, 16]: 0.050 (MPa)^1/2; δ difference [3, 17]: −7.494 (MPa)^1/2; cmc ([9]; solvent content 0 (v organic solvent/v water)): 0.067 g/L; cmc ([9]; solvent content 0.4%): 0.076 g/L; cmc ([9]; solvent content 1%): 0.073 g/L; cmc ([9]; solvent content 2%): 0.101 g/L; cmc ([9]; solvent content 4%): 0.082 g/L; cmc ([9]; solvent content 10%): 0.131 g/L; cmc ([9]; solvent content 20%): 0.22 g/L"
"c1ccc(Nc2cccc3ccccc23)cc1 [NPN, N-phenyl-1-naphthylamine]",,,,,,0.02 to 0.05 g/L,,,,,,,
"CCN(CC)c1ccc2nc3c4ccccc4c(=O)cc-3oc2c1 [NR, Nile red]",,,,,,0.05 to 0.1 g/L,0.2 to 0.3 g/L,,,,,,
"c1cc2ccc3cccc4ccc(c1)c2c34 [PYR, pyrene, reference compound]",,,,,,0.05 to 0.2 g/L,0.03 to 0.1 g/L,,22.5 (MPa)^1/2,4 (MPa)^1/2,1.6 (MPa)^1/2,22.909 (MPa)^1/2,
"CCN(CC)c1ccc2c(-c3ccccc3C(=O)O)c3ccc(=[N+](CC)CC)cc-3oc2c1 [RhB, rhodamine B, reference compound]",,,,,,0.1 to 0.15 g/L,0.3 to 1 g/L,,16.7 (MPa)^1/2,18.5 (MPa)^1/2,17.5 (MPa)^1/2,30.453 (MPa)^1/2,
CCCCCC [n-Hexane],,,69 °C,15.204 (MPa)^1/2,−7.679 (MPa)^1/2,,,,,,,,Solvent solubility in water [1]: Insoluble; Probe solubility in solvent [2]: Insoluble
CCCCCCCCO [n-Octanol],81 °C,8.93 mPa · s,195 °C,3.753 (MPa)^1/2,−2.022 (MPa)^1/2,,,,16 (MPa)^1/2,11.9 (MPa)^1/2,5 (MPa)^1/2,20.557 (MPa)^1/2,"Solvent solubility in water [1]: Insoluble; Probe solubility in solvent [2]: Soluble (0.01-0.1% is soluble); Ra [3, 15]: 14.205 (MPa)^1/2; δ difference [3, 17]: −9.896 (MPa)^1/2"
Polyethylene glycol 200 [Polyethylene glycol 200 (PEG200)],>100 °C,(22-23) mPa · s,,,,,,0.113 g/L,,,,,"cmc value, NR, By Fluorescence spectrophotometer [6, 12]: 0.062 g/L; cmc value, CUR, By Fluorescence spectrophotometer [6, 13]: 0.094 g/L; cmc value, NR, By Customized fluorescence photoelectric detector [7]: 0.069 g/L"
